According to US20230012368A1 (Hoffmann-La Roche Inc., priority 2018, published 2023):
Counter-ions that a name gives are not always drawn. Like-named read-outs stand apart in the source and are kept apart here.

Tested on: Acinetobacter baumannii ATCC 17978
Test: Antimicrobial susceptibility testing: 90% growth inhibitory concentration (IC90) determination
Format: cell-based
Details: 90% growth inhibitory concentration, Acinetobacter baumannii ATCC17978, Iso-Sensitest broth, OD 600 nm over 16h, read-out: ATCC17978 IC90
Method in brief: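 Compounds serially twofold diluted (e.g. 50 to 0.097 μM final) in Iso-Sensitest broth, inoculated at ~5×10^(5) CFU/ml, incubated at 35±2° C. OD600 read every 20 minutes over 16h. IC90 taken as concentration inhibiting 90% of growth during logarithmic phase.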

[1] = Acinetobacter baumannii, ATCC17978, 16 h

Work on `N#CCOc1ccc(-c2cnc3c(Nc4ccc(C(=O)NCCCN5CCNCC5)c(Cl)c4)nccn23)c(F)c1F` [Example 77, 2-chloro-4-((3-(4-(cyanomethoxy)-2,3-difluorophenyl)imidazo [1,2-a]pyrazin-8-yl)amino)-N-(3-(piperazin-1-yl)propyl)benzamide] yielded an IC90 [1] of 100 nM.
For `CN(CCC1CCNCC1)C(=O)c1ccc(Nc2nccn3c(-c4ccc(OCC#N)c(F)c4F)cnc23)cc1Cl` [Example 78, 2-chloro-4-[[3-[4-(cyanomethoxy)-2,3-difluoro-phenyl]imidazo[1,2-a]pyrazin-8-yl]amino]-N-methyl-N-[2-(4-piperidyl)ethyl] benzamide; 2,2,2-trifluoroacetic acid], the IC90 [1] was 130 nM.
In the case of `N#CCOc1ccc(-c2cnc3c(Nc4ccc(C(=O)NCC5CCNCC5)c(Cl)c4)nccn23)c(F)c1F` [Example 79, 2-chloro-4-[[3-[4-(cyanomethoxy)-2,3-difluoro-phenyl]imidazo[1,2-a]pyrazin-8-yl]amino]-N-(4-piperidylmethyl) benzamide], the IC90 [1] was 90 nM.
`N#CCOc1ccc(-c2cnc3c(Nc4ccc(C(=O)NCCc5ccncc5)c(Cl)c4)nccn23)c(F)c1Cl` [Example 80, 2-chloro-4-[[3-[3-chloro-4-(cyanomethoxy)-2-fluoro-phenyl]imidazo[1,2-a]pyrazin-8-yl]amino]-N-[2-(4-pyridyl)ethyl] benzamide] showed an IC90 [1] of 270 nM.
In the case of `Cc1cc(Nc2nccn3c(-c4ccc(OC(F)F)cc4)cnc23)ccc1C(=O)N(C)CCC1CCNCC1` [Example 81, 4-((3-(4-(difluoromethoxy)phenyl)imidazo[1,2-a]pyrazin-8-yl)amino)-N,2-dimethyl-N-(2-(piperidin-4-yl)ethyl)benzamide], the IC90 was 200 nM.
`COc1ccc(-c2cnc3c(Nc4ccc(C(=O)NCC5CCN(C(=N)N)CC5)c(C)c4)nccn23)cc1Cl` [Example 82, N-((1-carbamimidoyl-piperidin-4-yl)methyl)-4-((3-(3-chloro-4-methoxyphenyl)imidazo [1,2-a]pyrazin-8-yl)amino)-2-methylbenzamide] showed an IC90 [1] of 270 nM.
In the case of `Cc1cc(Nc2nccn3c(-c4ccc(OC(F)F)cc4)cnc23)ccc1C(=O)NCCCCNC(=N)N` [Example 83, 4-((3-(4-(difluoromethoxy)phenyl)imidazo[1,2-a]pyrazin-8-yl)amino)-N-(4-guanidinobutyl)-2-methylbenzamide], the IC90 [1] was 250 nM.
`N#CCOc1ccc(-c2cnc3c(Nc4ccc(C(=O)NCc5cc[nH]c(=O)c5)c(Cl)c4)nccn23)c(F)c1F` [Example 85, 2-chloro-4-[[3-[4-(cyanomethoxy)-2,3-difluoro-phenyl]imidazo[1,2-a]pyrazin-8-yl]amino]-N-[(2-oxo-1H-pyridin-4-yl)methyl]benzamide] was tested, and the IC90 [1] was 70 nM.
For `Cn1ccc(CNC(=O)c2ccc(Nc3nccn4c(-c5ccc(OCC#N)c(F)c5F)cnc34)cc2Cl)cc1=O` [Example 86, 2-chloro-4-[[3-[4-(cyanomethoxy)-2,3-difluoro-phenyl]imidazo[1,2-a]pyrazin-8-yl]amino]-N-[(1-methyl-2-oxo-4-pyridyl)methyl] benzamide], the IC90 [1] was 140 nM.
`Cn1cc(CNC(=O)c2ccc(Nc3nccn4c(-c5ccc(OCC#N)c(F)c5F)cnc34)cc2Cl)ccc1=O` [Example 87, 2-chloro-4-[[3-[4-(cyanomethoxy)-2,3-difluoro-phenyl]imidazo[1,2-a]pyrazin-8-yl]amino]-N-[(1-methyl-6-oxo-3-pyridyl)methyl] benzamide] was tested, and the IC90 [1] was 80 nM.
In the case of `Cc1cc(Nc2nccn3c(-c4ccc(Cl)cc4)cnc23)ccc1C(=O)N(C)CCC1CCNCC1` [Example 88, 4-((3-(4-chlorophenyl)imidazo [1,2-a]pyrazin-8-yl)amino)-N,2-dimethyl-N-(2-(piperidin-4-yl)ethyl)benzamide hydrochloride], the IC90 was 250 nM.
Work on `Cc1cc(Nc2nccn3c(-c4ccc(OC(F)F)c(F)c4)cnc23)ccc1C(=O)N(C)CCC1CCNCC1` [Example 89, 4-((3-(4-(difluoromethoxy)-3-fluorophenyl)imidazo [1,2-a]pyrazin-8-yl)amino)-N,2-dimethyl-N-(2-(piperidin-4-yl)ethyl)benzamide hydrochloride] yielded an IC90 of 230 nM.
Compound `COc1ccc(-c2cnc3c(Nc4ccc(C(=O)N(C)CCN5CCNCC5)c(Cl)c4)nccn23)cc1F` [Example 90, 2-chloro-4-((3-(3-fluoro-4-methoxyphenyl)imidazo [1,2-a]pyrazin-8-yl)amino)-N-methyl-N-(2-(piperazin-1-yl)ethyl)benzamide hydrochloride] has an IC90 of 230 nM.
For `CNC(=O)c1ccc(Nc2nccn3c(-c4ccc(OC(F)F)cc4)cnc23)cc1I` [Example 91, 4-((3-(4-(difluoromethoxy)phenyl)imidazo[1,2-a]pyrazin-8-yl)amino)-2-iodo-N-methylbenzamide], the IC90 [1] was 260 nM.
Work on `C=Cc1cc(Nc2nccn3c(-c4ccc(OC(F)F)cc4)cnc23)ccc1C(=O)NC` [Example 92, 4-((3-(4-(difluoromethoxy)phenyl)imidazo[1,2-a]pyrazin-8-yl)amino)-N-methyl-2-vinylbenzamide] yielded an IC90 [1] of 610 nM.
`CNC(=O)c1ccc(Nc2nccn3c(-c4ccc(OC(F)F)cc4)cnc23)cc1Br` [Example 93, 2-bromo-4-((3-(4-(difluoromethoxy)phenyl)imidazo[1,2-a]pyrazin-8-yl)amino)-N-methylbenzamide] showed an IC90 [1] of 200 nM.
Compound `CCc1cc(Nc2nccn3c(-c4ccc(OC(F)F)c(F)c4F)cnc23)ccc1C(=O)NCCCCN` [Example 94, N-(4-aminobutyl)-4-((3-(4-(difluoromethoxy)-2,3-difluorophenyl)imidazo [1,2-a]pyrazin-8-yl)amino)-2-ethylbenzamide hydrochloride] has an IC90 [1] of 280 nM.
In the case of `CCc1cc(Nc2nccn3c(-c4ccc(OC(F)F)c(F)c4F)cnc23)ccc1C(=O)NCCCN1CCCC1` [Example 95, 4-((3-(4-(difluoromethoxy)-2,3-difluorophenyl)imidazo [1,2-a]pyrazin-8-yl)amino)-2-ethyl-N-(3-(pyrrolidin-1-yl)propyl)benzamide], the IC90 [1] was 190 nM.
Compound `CCc1cc(Nc2nccn3c(-c4ccc(OC(F)F)c(F)c4F)cnc23)ccc1C(=O)NCCCCCN` [Example 96, N-(5-aminopentyl)-4-((3-(4-(difluoromethoxy)-2,3-difluorophenyl)imidazo [1,2-a]pyrazin-8-yl)amino)-2-ethylbenzamide hydrochloride] has an IC90 [1] of 70 nM.
`CCc1cc(Nc2nccn3c(-c4ccc(OC)c(F)c4F)cnc23)ccc1C(=O)NCC(C)(C)CN` [Example 98, N-(3-amino-2,2-dimethylpropyl)-4-((3-(2,3-difluoro-4-methoxyphenyl)imidazo [1,2-a]pyrazin-8-yl)amino)-2-ethylbenzamide hydrochloride] was tested, and the IC90 [1] was 780 nM.
Compound `CCc1cc(Nc2nccn3c(-c4ccc(OC)c(F)c4F)cnc23)ccc1C(=O)NC(C)(C)CN` [Example 99, N-(1-amino-2-methylpropan-2-yl)-4-((3-(2,3-difluoro-4-methoxyphenyl)imidazo [1,2-a]pyrazin-8-yl)amino)-2-ethylbenzamide hydrochloride] has an IC90 [1] of 350 nM.
For `CCc1cc(Nc2nccn3c(-c4ccc(OC(F)F)c(F)c4F)cnc23)ccc1C(=O)NC(C)(C)CCN` [Example 100, N-(4-amino-2-methylbutan-2-yl)-4-((3-(4-(difluoromethoxy)-2,3-difluorophenyl)imidazo [1,2-a]pyrazin-8-yl)amino)-2-ethylbenzamide hydrochloride], the IC90 [1] was 350 nM.
With `CCc1cc(Nc2nccn3c(-c4ccc(OC)c(F)c4F)cnc23)ccc1C(=O)N[C@H](C)CN` [Example 101, (R)-N-(1-aminopropan-2-yl)-4-((3-(2,3-difluoro-4-methoxyphenyl)imidazo [1,2-a]pyrazin-8-yl)amino)-2-ethylbenzamide dihydrochloride] the IC90 [1] was 240 nM.
Compound `CCc1cc(Nc2nccn3c(-c4ccc(OC)c(F)c4F)cnc23)ccc1C(=O)N[C@@H](C)CN` [Example 102, (S)-N-(1-aminopropan-2-yl)-4-((3-(2,3-difluoro-4-methoxyphenyl)imidazo [1,2-a]pyrazin-8-yl)amino)-2-ethylbenzamide dihydrochloride] has an IC90 [1] of 320 nM.
`CCc1cc(Nc2nccn3c(-c4ccc(OC)c(F)c4F)cnc23)ccc1C(=O)NCCCNC(=O)CN` [Example 103, N-(3-(2-aminoacetamido)propyl)-4-((3-(2,3-difluoro-4-methoxyphenyl)imidazo [1,2-a]pyrazin-8-yl)amino)-2-ethylbenzamide hydrochloride] was tested, and the IC90 [1] was 80 nM.
`N#CCOc1ccc(-c2cnc3c(Nc4ccc(C(=O)NCCc5nnn[nH]5)c(Cl)c4)nccn23)c(F)c1F` [Example 104, 2-chloro-4-[[3-[4-(cyanomethoxy)-2,3-difluoro-phenyl]imidazo[1,2-a]pyrazin-8-yl]amino]-N-[2-(1H-tetrazol-5-yl)ethyl]benzamide] gave an IC90 of 1100 nM.
Compound `COc1ccc(-c2cnc3c(Nc4ccc(C(=O)N(C)CCn5ccnc5)c(C)c4)nccn23)cc1F` [Example 105, 4-[[3-(3-fluoro-4-methoxy-phenyl)imidazo[1,2-a]pyrazin-8-yl]amino]-N-(2-imidazol-1-ylethyl)-N,2-dimethyl-benzamide] has an IC90 [1] of 820 nM.
For `COc1ccc(-c2cnc3c(Nc4ccc(C(=O)NCC5CCS(=O)(=O)CC5)c(Cl)c4)nccn23)c(F)c1F` [Example 106, 2-chloro-4-[[3-(2,3-difluoro-4-methoxy-phenyl)imidazo[1,2-a]pyrazin-8-yl]amino]-N-[(1,1-dioxothian-4-yl)methyl]benzamide; 2,2,2-trifluoroacetic acid], the IC90 was 140 nM.
Work on `COc1ccc(-c2cnc3c(Nc4ccc(C(=O)N(C)C)cc4)nccn23)c(F)c1F` [Example 107, 4-[[3-(2,3-difluoro-4-methoxy-phenyl)imidazo[1,2-a]pyrazin-4-yl]amino]-N,N-dimethyl-benzamide] yielded an IC90 [1] of 120 nM.
